“And” between values parts separate entries of the source, which are not always exact repeats. Identical values can stand only once.

What is called mortality is the percentage killed. The low end stands for a weak lethal effect, the high end for a strong lethal effect.

For test [1], the system named is CLP-induced sepsis. Nature of the test: Cecal ligation puncture (CLP) mouse model for sepsis: survival, weight and MSS clinical score. The class given is in vivo. The source says: The cecal ligation puncture (CLP) model has been proposed to more closely replicate the nature and course of clinical sepsis in humans, as compared to other models, and is considered by many researchers as the gold-standard animal model of sepsis. The CLP model involves the ligation of the cecum, usually below the ileocecal junction (to prevent bowel obstruction), and at least one centimeter above the distal end of the cecum, otherwise the sepsis induced is very mild. The length of ligated cecum, defined as the distance from the distal end of the cecum to the ligation point, determines the severity of the sepsis induced. Following ligation, the cecum is perforated, and this step too can be adjusted to modulate the severity of the sepsis ensuing. The perforation of the cecum is followed by the release of fecal material into the peritoneal cavity to induce a polymicrobial infection, which results in an exacerbated immune response. The benefits of the CLP model are its reproducibility and potential to alter the severity of sepsis by controlling needle size, number of cecal punctures, and antibiotics utilization.
The study reported here summarizes the effect of apoptotic cells administered 4 hours after the end of CLP on the development of CLP-induced sepsis in a female C57BL/6 mouse model.
C57BL/6 female mice, 10-13 wk old, were purchased from ENVIGO (Israel). Mice were kept in an SPF animal facility in compliance with institutional IACUC guidelines. Mice were weighed daily and monitored 2-3 times a day for clinical signs and determination of the murine sepsis score (MSS) clinical score (according to Shrum, B., Anantha, R. V., Xu, S. X., Donnelly, M., Haeryfar, S. M. M., McCormick, J. K., and Mele, T. (2014). A robust scoring system to evaluate sepsis severity in an animal model. BMC Res. Notes 7, 1-11). The endpoint was defined as total score of 15 or maximum score in one of the categories in the table.
The procedure was performed as briefly described below: Cecal Ligation and Puncture (CLP)—Experimental method. Briefly, the mice were operated under isoflurane anesthesia machine. Mice were anesthetized by 4% isoflurane in the chamber for about 1 minute, following anesthesia mice were transferred to the operation table and connected to the isoflurane nuzzle with 2% isoflurane. Mice were administered analgesics by sub-cutaneous (S.C.) injection of tramadol 5 mg/kg in 0.1 ml of pre-warmed 0.9% saline solution. After opening the abdomen of the mouse by a midline incision, the cecum was exposed. The cecum was ligated 75% above its distal end with a 4-0 silk suture. Following ligation, the cecum was perforated twice with a 19-gauge needle, using the through-and-through technique (introducing a needle through the cecum). […]

The test system of test [2] is serum cytokines/chemokines. Put plainly: CLP model: serum cytokines/chemokines (Luminex). The class given is in vivo, mouse. The conditions noted are these: 24 h and 48 h post-CLP. The procedure: At the indicated times (pre-CLP, 24 h, 48 h, and 72 h post-CLP) ˜500 μl blood was collected in a pre-labeled Eppendorf tube and left for 30 min to allow clotting. The samples were centrifuged at 1800 g (3000 rpm) for 10 min at 4° C., […]. Serum was transferred to a new pre-labeled Eppendorf tube and kept at 4° C. Excess serum was stored at −80° C. Cytokine/chemokine measurement was performed using the Luminex MAGPIX system, and analysis was performed with Milliplex software.
Cytokine/chemokine measurement was performed using the Luminex MAGPIX system, and analysis was performed with Milliplex software. NGAL and Cystatin C were tested by Luminex Multiplex kit (Millipore, MKI2MAG-P4k). All reagents were provided with the kit, and all reagents were prepared according to the manufacturers' protocols. The assays were performed in 96-well plates according to the protocol provided. Plate reading was performed with the Luminex MAGPIX system (Luminex Corp.) and analyzed using Milliplex software (Millipore). […] The raw data was measured as mean fluorescence intensity (MFI) and the concentration of each analyte for each sample was calculated using a 4- or 5-parameter logistic fit curve generated for each analyte from the 7 standards. The lower limit of quantification (LLOQ) was determined using the lowest standard that was at least 3 times above background. […]

For test [3], the system named is CLP-induced sepsis. Put plainly: CLP model: organ dysfunction analysis 24 hours post CLP (blood gas, hematology, biochemistry, lung weight, NGAL, cystatin C, C3a, C5a). The class given is in vivo, mouse. Particulars: CLP + Ertapenem mice. The procedure: 22-24 h after CLP, mice were weighed, assigned an MSS clinical score and sacrificed for the evaluation of organ dysfunction. Mice were bled through the retro-orbital sinus (venous blood). Naïve mice were bled under isoflurane analgesia; CLP mice were bled without analgesia due to the concern of death. 100 μl blood was collected using heparin-coated capillary tube (Paul Marienfeld, K G, Lauda-Knigshofen, Germany) and immediately tested using STAT profile prime machine (Nova Biomedical, Waltham, Mass., USA). […] was collected into EDTA tubes (MiniCollect, Greiner Bio-One, […], Austria), tubes were rotated to prevent blood clotting and kept at 4° C. Hematology analysis was performed by AML laboratories (Herzliya, Israel). About 500 μl blood was collected to a pre-labeled Eppendorf tube and left for -30 min to allow clotting. The samples were centrifuged at 1800 g (3000 rpm) for 10 min at 4° C., 200 μl serum was transferred to a new pre-labeled Eppendorf tube and kept at 4° C. Excess serum was stored in -80° C. Biochemistry analysis was performed by AML laboratories (Herzliya, Israel). […] Blood was collected to pre-labeled Eppendorf tubes and left for -30 min to allow clotting. Tubes were centrifuged at 1800 g (3000 rpm) for 10 min at 4° C. Serum was transferred to new pre-labeled Eppendorf tubes and stored at -80° C. for Luminex (NGAL and Cystatin C) and ELISA (C3a and C5a) evaluation. Cytokine/chemokine measurement was performed using the Luminex MAGPIX system, and analysis was performed with Milliplex software. NGAL and Cystatin C were tested by Luminex Multiplex kit (Millipore, […]). All reagents were provided with the kit, and all reagents were prepared according to the manufacturers' protocols. The assays were performed in 96-well plates according to the protocol provided. Plate reading was performed with the Luminex MAGPIX system (Luminex Corp.) and analyzed using Milliplex software (Millipore). […] The raw data was measured as mean fluorescence intensity (MFI) and the concentration of each analyte for each sample was calculated using a 4- or 5-parameter logistic fit curve generated for each analyte from the 7 standards. […] The calculation of the LLOQ was performed by subtracting the MFI of the background (diluent) from the MFI of the lowest standard concentration and back-calculating the concentration from the standard curve. Complement components were tested by sandwich ELISA kits: […]038) and C5a (EA100633, OriGene, Rockville, Md., USA). All reagents were provided with the kits and prepared according to the manufacturers' protocols. Assays were performed in 96-well plate according to the protocols provided. OD plate reading was performed with the Infinite F50 (TECAN, Mainnedorf, Switzerland) and analyzed using Magellan software (TECAN). The raw data was measured as 450 nm optical density (OD) and the concentration was calculated using a linear standard curve generated from 6-7 standards. The lower limit of quantification (LLOQ) was determined using the lowest standard. The calculation of the LLOQ was performed by subtracting the OD of the background (diluent) from the OD of the lowest standard concentration and back-calculating the concentration from the standard curve. […] N=40) was assigned with a clinical score, weighed, and blood samples were drawn from the retro-orbital sinus for further analyses. Mice were sacrificed and their lungs were harvested and weighed. To elucidate the effects of CLP on organ dysfunction and its correlation with the MSS clinical score, blood was tested for multiple parameters of organ dysfunction relating to five major systems: cardiovascular, respiratory, renal, hepatic, and hematological, as well as complement and several metabolites (Tables 24A and 24B).

Another test relates to Raji cells. Put plainly: Flow cytometry of CD20+ Raji tumor cells in spleen, bone marrow and liver of leukemic mice. Particulars: for CD20+, Bone marrow / CD20+, Liver / CD20+, Spleen: In Vivo Experiment 023, individual mice. The class given is in vivo, mouse. The method, then: Mouse spleen, liver, and bone marrow were collected from sacrificed mice (following deterioration of clinical signs, as defined above) and analyzed by flow-cytometry (FACSCalibur, BD, Franklin Lakes, N.J., USA) for the presence of the Raji tumor (anti-CD20).
Upon sacrifice, following the deterioration of clinical signs as described above, organs of interest were collected for analysis, namely the liver, spleen, and bone-marrow. Cells of these target organs were analyzed by flow cytometry for the presence of human tumor cells (Raji cells are positive for CD20).
Liver, spleen, and bone marrow cells were collected and analyzed by flow cytometry (FACSCalibur, BD) for the presence of human CD20-FITC (Biolegend, Cat. #302206); mIgG1-FITC (Biolegend, Cat. #400110).
Mouse spleen, liver, and bone marrow cells were collected from mice who were sacrificed following clinical deterioration, as defined in the methods) and analyzed by flow cytometry (FACSCalibur, BD) for the presence of human CD20 (FITC).
Expression (%) of CD20 tumor cells in the spleen, bone marrow, and liver, as determine by flow cytometry. Mouse spleen, liver, and bone marrow were collected from sacrificed mice (following clinical deterioration, as defined in methods) and analyzed by flow cytometry (FACSCalibur, BD) for the presence of human CD20 (FITC).
(A flow cytometer gives signals particle by particle.)

The mark [4] stands for this setting: CLP mice given ertapenem, Allocetra-OTS 20×10^6 cells IV 4 h after CLP.

Take `C[C@@H](O)[C@H]1C(=O)N2C(C(=O)O)=C(S[C@@H]3CN[C@H](C(=O)Nc4cccc(C(=O)O)c4)C3)[C@H](C)[C@H]12` [Ertapenem]: the “final clinical score (MSS plateau value)” value in the test with CLP-induced sepsis [1] (CLP mice given ertapenem) is 14.37. In the test on CLP-induced sepsis [1] (setting [4]), this compound registered a median survival of 48 h and a mortality of 93%. In the test with CLP-induced sepsis [1] (Ertapenem with vehicle control, n=15), the survival rate was 6.6%. Besides, the “cytokine/chemokine release after sepsis induction” value in test [2] is “no beneficial effects”. Besides, in the test on CLP-induced sepsis [3], the “Basophils, median” value is 0 10^3/μl; the “C3a, median” value came to 4835 ng/mL; the “C5a, median” value was 1809 ng/mL; the “Chloride, median” value is given as 121.1 mmol/L. In the test with CLP-induced sepsis [3], the “Cholesterol, median” value amounted to 108 mg/dL; the “Eosinophils, median” value is on record as 0 10^3/μl; the “Glucose, median” value is 59.5 mg/dL; the “HCT, median” value came to 40.9%. In the test with CLP-induced sepsis [3], the “Hemoglobin, median” value turned out to be 12.4 g/dL; the “Lactate, median” value is 13 mg/dL; the “Lymphocytes, median” value is listed as 1.55 10^3/μl; the “MCH, median” value came to 14.9 pg. In the test on CLP-induced sepsis [3], the “MCHC, median” value worked out at 31.2 g/dL; the “MCV, median” value came to 47.9 fL; the “Monocytes, median” value is 0 10^3/μl; the “Neutrophils, median” value was 0.31 10^3/μl. In the test on CLP-induced sepsis [3], the “Phosphorus, median” value is on record as 10.2 mg/dL; the “Platelets, median” value is reported as 99 10^3/μL; the “Potassium, median” value came out at 6.6 mmol/L; the “RBC, median” value is on record as 8.36 10^6/μL. Also, in the test with CLP-induced sepsis [3], the “Sodium, median” value worked out at 154.1 mmol/L and the “WBC, median” value is given as 1.94 10^3/μL.
Consider Rituximab [RtX], for which, in the test with Raji cells (RtX 2 mg/kg), the “CD20+, Bone marrow” value was 0.8% and 3.1% and 3%; the “CD20+, Liver” value was 2.1% and 1.2% and 0.4%; the “CD20+, Spleen” value is 0% (2×) and 0.7%. Besides, in the test with Raji cells (RtX 5 mg/kg), the “CD20+, Bone marrow” value was 2.1% and 0.5% and 4.3% and 2.2% and 2.6%; the “CD20+, Liver” value is 1% and 7.3% and 1.4% and 0.9% and 5.7%; the “CD20+, Spleen” value was 0% (3×) and 0.1% (2×). For the same compound, in the test on Raji cells (rtx 2 mg/Kg), the “CD20+ average tumor cell population, Bone Marrow” value is 2.3 ± 1.3%; the “CD20+ average tumor cell population, Liver” value was determined as 1.2 ± 0.8%; the “CD20+ average tumor cell population, Spleen” value amounted to 0.2 ± 0.4%. For the same compound, in the test with Raji cells (rtx 5 mg/Kg), the “CD20+ average tumor cell population, Bone Marrow” value worked out at 1.7 ± 1.5%; the “CD20+ average tumor cell population, Liver” value worked out at 3 ± 2.5%; the “CD20+ average tumor cell population, Spleen” value was 0%.

The record behind these values is patent US11596652B2, “Early apoptotic cells for use in treating sepsis” (ENLIVEX THERAPEUTICS LTD., priority 2015, dated 2023).
